Experiment: Cytotoxicity assay (AlamarBlue) in mock infected MT-2 cells
Format: cell-based
Settings: human
Experimental: The present assay was used to screen candidate antiviral compounds by quantification of virus spread and production over several rounds of infection in vitro. MT-2, a HIV-1 permissive human T-cell line, was seeded in microtiter plates and was simultaneously treated with serially diluted compound and inoculated with a HIV-1 NL4-3 viral clone engineered to express Renilla luciferase in place of Nef. Following treatment, the culture was incubated for 96 hours. After the incubation, media was collected and used to estimate relative infectivity on the indicator cell line, TZM-bl. Additionally, viral spread was quantified by measuring luciferase activity via a commercially available luciferase substrate. In parallel, MT-2 cells were seeded and inoculated with mock virus in the presence of serially diluted compound. Compound toxicity was quantified 96 hours after treatment with AlamarBlue.
MT-2 (NIH Aids reagent program 237) cells were grown and maintained in an incubator at 37° C. with 5% CO2 using a basal medium of RPMI-1640 supplemented with 10% FBS. Cells were seeded in 100 μl at 2×10^4 cells/well in white walled 96-well microtiter plates. Candidate compounds were 3-fold serially diluted in the appropriate solvent. Solvent without compound was used as a no drug reference. Cells were inoculated at a multiplicity of 0.027 with an HIV-1 NL4-3 virus stock engineered to express Renilla luciferase in place of Nef. Diluted virus stock was first added to serially diluted compound. Compound and virus were delivered to cells in an equal volume (100 μl) and treated cultures were returned to the incubator for 96 hours. In parallel, plates for cytotoxicity estimates were prepared in the same way except cells were plated in clear walled 96-well microtiter plates and were mock infected.
At 96 hours post treatment, 20 μl AlamarBlue proliferation reagent was added to 200 μl treated and mock infected cultures and incubated for 3 hours at 37° C. with 5% CO2 then read at 545, 590 nm on fluorescence plate reader (Biotek).
For all assays, data was imported into Accelrys Assay Explorer 3.3. In Assay Explorer, % inhibition (antiviral or cytotoxicity) was calculated using the solvent control as a reference by the following equation: 1−(SignalCompound/SignalReference). The % Inhibition and compound concentration data was fitted using the following 4-parameter logistic model (Assay Explorer model 42):
[formula] where X is compound concentration, Y is % inhibition, D is the maximum % Inhibition (constrained to 100%), C is IC50 value or inflection point, B is the hill slope, and A is the minimum % inhibition (constrained to 0%). The IC50 value is reported as the EC50 or CC50 depending on the assay endpoint. EC50 represents the effective concentration at which virus replication is inhibited by 50 percent. CC50 represents the concentration that results in the death of 50 percent of the host cells. The selectivity or therapeutic index (SI or TI), is the ratio of CC50 over EC50 and represents the relative effectiveness in inhibiting viral replication compared to inducing cell death.

In the case of `COc1cc2c(cc1OCc1ccccc1)CCNC2/C=C/c1cc(C(C)C)c(OC)cc1C` (stereo not drawn) [BW, 6-(benzyloxy)-7-methoxy-1-[(E)-2-[4-methoxy-2-methyl-5-(propan-2-yl)phenyl]ethenyl]-1,2,3,4-tetrahydroisoquinoline], the CC50 at 96 h is reported as 1.88 µM.

`COc1cc2c(cc1OCc1ccccc1)CCNC2/C=C/c1cc(OCC(C)(C)C)c(OC)cc1C` (stereo not drawn) [BX, 6-(benzyloxy)-1-[(E)-2-[5-(2,2-dimethylpropoxy)-4-methoxy-2-methylphenyl]ethenyl]-7-methoxy-1,2,3,4-tetrahydroisoquinoline] showed a CC50 at 96 h of 3.4 µM.

Molecule `COc1cc2c(cc1OCc1ccccc1)CCNC2/C=C/c1cc(OCC2CCNCC2)c(OC)cc1C` (stereo not drawn) [BY, 6-(benzyloxy)-7-methoxy-1-[(E)-2-[4-methoxy-2-methyl-5-(piperidin-4-ylmethoxy)phenyl]ethenyl]-1,2,3,4-tetrahydroisoquinoline] has a CC50 at 96 h of 1.97 µM.

`COc1cc2c(cc1OCc1ccccc1)CCNC2/C=C/c1ccc(S(C)(=O)=O)cc1` (stereo not drawn) [BZ, 6-(benzyloxy)-1-[(E)-2-(4-methanesulfonylphenyl)ethenyl]-7-methoxy-1,2,3,4-tetrahydroisoquinoline] gave a CC50 at 96 h of 1 µM.

With `COc1ccc(/C=C/C2NCCc3cc(OCc4ccccc4)c(OC)cc32)c(OC)n1` (stereo not drawn) [CA, 6-(benzyloxy)-1-[(E)-2-(2,6-dimethoxypyridin-3-yl)ethenyl]-7-methoxy-1,2,3,4-tetrahydroisoquinoline] the CC50 at 96 h was 15.3 µM.

`COc1cc2c(cc1OCc1ccccc1)CCNC2/C=C/c1ccc2c(c1)CCCO2` (stereo not drawn) [CB, 6-(benzyloxy)-1-[(E)-2-(3,4-dihydro-2H-1-benzopyran-6-yl)ethenyl]-7-methoxy-1,2,3,4-tetrahydroisoquinoline] gave a CC50 at 96 h of 5.36 µM.

With `COc1cc2c(cc1OCc1ccccc1)CCNC2/C=C/c1c(C)ccc2c1OCCC2` (stereo not drawn) [CC, 6-(benzyloxy)-7-methoxy-1-[(E)-2-(7-methyl-3,4-dihydro-2H-1-benzopyran-8-yl)ethenyl]-1,2,3,4-tetrahydroisoquinoline] the CC50 at 96 h was 5.44 µM.

Work on `COc1cc(C)c(/C=C/C2NCCc3cc(OCc4ccccc4)c(OC)cc32)cc1OCCCCN=[N+]=[N-]` (stereo not drawn) [CD, 1-[(E)-2-[5-(4-azidobutoxy)-4-methoxy-2-methylphenyl]ethenyl]-6-(benzyloxy)-7-methoxy-1,2,3,4-tetrahydroisoquinoline] yielded a CC50 at 96 h of 1.63 µM.

Molecule `COc1cc2c(cc1OCc1ccccc1)CCNC2/C=C/c1cc2c(cc1C)OCCC2` (stereo not drawn) [CE, 6-(benzyloxy)-7-methoxy-1-[(E)-2-(7-methyl-3,4-dihydro-2H-1-benzopyran-6-yl)ethenyl]-1,2,3,4-tetrahydroisoquinoline] has a CC50 at 96 h of 4.87 µM.

Work on `COc1cc2c(cc1OCc1ccccc1)CCNC2/C=C/c1cccc2c1OCCC2` (stereo not drawn) [CF, 6-(benzyloxy)-1-[(E)-2-(3,4-dihydro-2H-1-benzopyran-8-yl)ethenyl]-7-methoxy-1,2,3,4-tetrahydroisoquinoline] yielded a CC50 at 96 h of 9.1 µM.

Work on `COc1cc2c(cc1OCc1ccccc1)CCNC2/C=C/c1cc2c(cc1C)OCC2` (stereo not drawn) [CG, 6-(benzyloxy)-7-methoxy-1-[(E)-2-(6-methyl-2,3-dihydro-1-benzofuran-5-yl)ethenyl]-1,2,3,4-tetrahydroisoquinoline] yielded a CC50 at 96 h of 4.8 µM.

Molecule `COc1cc2c(cc1OCc1ccccc1)CCNC2/C=C/c1cc2ccccc2n1C(=O)OC(C)(C)C` (stereo not drawn) [CH, tert-butyl 2-[(E)-2-[6-(benzyloxy)-7-methoxy-1,2,3,4-tetrahydroisoquinolin-1-yl]ethenyl]-1H-indole-1-carboxylate] has a CC50 at 96 h of 3.48 µM.

Molecule `COc1cc2c(cc1OCc1ccccc1)CCNC2/C=C/c1cn(C(=O)OC(C)(C)C)c2ccccc12` (stereo not drawn) [CI, tert-butyl 3-[(E)-2-[6-(benzyloxy)-7-methoxy-1,2,3,4-tetrahydroisoquinolin-1-yl]ethenyl]-1H-indole-1-carboxylate] has a CC50 at 96 h of 4.98 µM.

For `COc1cc2c(cc1OCc1ccccc1)CCNC2/C=C/c1c[nH]c2ccccc12` (stereo not drawn) [CJ, 6-(benzyloxy)-1-[(E)-2-(1H-indol-3-yl)ethenyl]-7-methoxy-1,2,3,4-tetrahydroisoquinoline], the CC50 at 96 h was 6.55 µM.

In the case of `CCOC(=O)CCCOc1cc(/C=C/C2NCCc3cc(OCc4ccccc4)c(OC)cc32)ccc1OC` (stereo not drawn) [CV, ethyl 4-{5-[(E)-2-[6-(benzyloxy)-7-methoxy-1,2,3,4-tetrahydroisoquinolin-1-yl]ethenyl]-2-methoxyphenoxy}butanoate], the CC50 at 96 h is reported as 2.7 µM.

For `COc1cc2c(cc1OCc1ccccc1)CCNC2/C=C/c1ccccc1NC(=O)OC(C)(C)C` (stereo not drawn) [CW, tert-butyl N-{2-[(E)-2-[6-(benzyloxy)-7-methoxy-1,2,3,4-tetrahydroisoquinolin-1-yl]ethenyl]phenyl}carbamate], the CC50 at 96 h was 23.6 µM.

In the case of `COc1cc2c(cc1OCc1ccccc1)CCNC2/C=C/c1ccccc1N` (stereo not drawn) [CX, 2-[(E)-2-[6-(benzyloxy)-7-methoxy-1,2,3,4-tetrahydroisoquinolin-1-yl]ethenyl]aniline], the CC50 at 96 h is reported as 20.8 µM.

For `COc1cc2c(cc1OCc1ccccc1)CCNC2/C=C/c1ccc(OC)c(C(F)(F)F)c1` (stereo not drawn) [CY, 6-(benzyloxy)-7-methoxy-1-[(E)-2-[4-methoxy-3-(trifluoromethyl)phenyl]ethenyl]-1,2,3,4-tetrahydroisoquinoline], the CC50 at 96 h was 4 µM.

`COc1cc2c(cc1OCc1ccccc1)CCNC2/C=C/c1cc(C)c(OC)c(C(F)(F)F)c1` (stereo not drawn) [CZ, 6-(benzyloxy)-7-methoxy-1-[(E)-2-[4-methoxy-3-methyl-5-(trifluoromethyl)phenyl]ethenyl]-1,2,3,4-tetrahydroisoquinoline] showed a CC50 at 96 h of 4 µM.

Molecule `COc1cc2c(cc1OCc1ccccc1)CCNC2/C=C/c1ccccc1C(F)(F)F` (stereo not drawn) [DA, 6-(benzyloxy)-7-methoxy-1-[(E)-2-[2-(trifluoromethyl)phenyl]ethenyl]-1,2,3,4-tetrahydroisoquinoline] has a CC50 at 96 h of 10 µM.

For `COc1cc2c(cc1OCc1ccccc1)CCNC2/C=C/c1cccc(C(F)(F)F)c1` (stereo not drawn) [DB, 6-(benzyloxy)-7-methoxy-1-[(E)-2-[3-(trifluoromethyl)phenyl]ethenyl]-1,2,3,4-tetrahydroisoquinoline], the CC50 at 96 h was 10 µM.

For `COc1cc2c(cc1OCc1ccccc1)CCNC2/C=C/c1ccccc1N(C)C` (stereo not drawn) [DC, 2-[(E)-2-[6-(benzyloxy)-7-methoxy-1,2,3,4-tetrahydroisoquinolin-1-yl]ethenyl]-N,N-dimethylaniline], the CC50 at 96 h was 10 µM.

For `COCCOc1ccccc1/C=C/C1NCCc2cc(OCc3ccccc3)c(OC)cc21` (stereo not drawn) [DE, 6-(benzyloxy)-7-methoxy-1-[(E)-2-[2-(2-methoxyethoxy)phenyl]ethenyl]-1,2,3,4-tetrahydroisoquinoline], the CC50 at 96 h was 10 µM.

In the case of `COc1cc2c(cc1OCc1ccccc1)CCNC2/C=C/c1ccc2c(c1)OC(F)(F)O2` (stereo not drawn) [DF, 6-(benzyloxy)-1-[(E)-2-(2,2-difluoro-2H-1,3-benzodioxol-5-yl)ethenyl]-7-methoxy-1,2,3,4-tetrahydroisoquinoline], the CC50 at 96 h is reported as 10 µM.

With `COc1ccccc1/C=C/C1NCCc2cc(OCc3ccccc3)c(OC)cc21` (stereo not drawn) [DG, 6-(benzyloxy)-7-methoxy-1-[(E)-2-(2-methoxyphenyl)ethenyl]-1,2,3,4-tetrahydroisoquinoline] the CC50 at 96 h was 9 µM.

For `COc1cc2c(cc1OCc1ccccc1)CCNC2/C=C/c1ccccc1N1CCOCC1` (stereo not drawn) [DH, 6-(benzyloxy)-7-methoxy-1-[(E)-2-[2-(morpholin-4-yl)phenyl]ethenyl]-1,2,3,4-tetrahydroisoquinoline], the CC50 at 96 h was 17.8 µM.

Molecule `COc1ccc2cc(/C=C/C3NCCc4cc(OCc5ccccc5)c(OC)cc43)ccc2c1` (stereo not drawn) [DI, 6-(benzyloxy)-7-methoxy-1-[(E)-2-(6-methoxynaphthalen-2-yl)ethenyl]-1,2,3,4-tetrahydroisoquinoline] has a CC50 at 96 h of 5.84 µM.

Work on `COc1cc2c(cc1OCc1ccccc1)CCNC2/C=C/c1ccc(-c2cccnc2)cc1` (stereo not drawn) [DJ, 6-(benzyloxy)-7-methoxy-1-[(E)-2-[4-(pyridin-3-yl)phenyl]ethenyl]-1,2,3,4-tetrahydroisoquinoline] yielded a CC50 at 96 h of 5.86 µM.

Molecule `COc1cc2c(cc1OCc1ccccc1)CCNC2/C=C/c1ccc(-n2ccnc2)cc1` (stereo not drawn) [DK, 6-(benzyloxy)-1-[(E)-2-[4-(1H-imidazol-1-yl)phenyl]ethenyl]-7-methoxy-1,2,3,4-tetrahydroisoquinoline] has a CC50 at 96 h of 9.13 µM.

Work on `COc1cc2c(cc1OCc1ccccc1)CCNC2/C=C/c1ccc2cccnc2c1` (stereo not drawn) [DL, 7-[(E)-2-[6-(benzyloxy)-7-methoxy-1,2,3,4-tetrahydroisoquinolin-1-yl]ethenyl]quinoline] yielded a CC50 at 96 h of 7 µM.

Reference: US9518022B2, “Anti-HIV compounds” (priority 2014, dated 2016)
